Assay results as given in ChEMBL document CHEMBL4765368, “Structure guided design and synthesis of furyl thiazolidinedione derivatives as inhibitors of GLUT 1 and GLUT 4, and evaluation of their anti-leukemic potential” (Eur J Med Chem, 2020).

Test: Toxicity in SCID mouse xenografted with human CCRF-CEM cells assessed as body weight loss at 50 mg/kg, ip administered daily for 5 days with 2 days interval for 18 days
Type: organism-based
Conditions: in vivo, 432 h, time 18 day

In the case of `O=C(CN1C(=O)S/C(=C/c2ccco2)C1=O)Nc1nc2ccccc2s1`, the Activity is reported as “Non-Toxic”.
